Laboratory results from patent US20100068297A1, “Antimicrobial Composition” (NATURE THERAPEUTICS LIMITED, priority 2006, published 2010).
“And” between values parts separate entries of the source, which are not always exact repeats. Identical values can stand only once.

What was measured:
Prot. mirabilis = experiment: Tea extracts with metal salts, suspension assay 30 min; assay type: cell-based, Proteus mirabilis; conditions: Lambda buffer control
Description: (§1) Tea infusions were prepared as previously with boiling sterilized distilled water. After 10 minutes, the extracts are removed from the beaker into sterilized universal tubes. The pH of these extracts was neutralized using a 1 M NaOH solution. The extracts are refrigerated, used within 4 days and without further treatment. Overnight cultures of the Gram-positive strain (Staph. aureus) and the Gram-negative strains (Ps. aeruginosa and Prot. mirabilis) were suspended in Ringers solution to a turbidity equivalent to 0.5 McFarland (1.5×10^8 CFU/ml). Metal salts were added to the optimum tea extracts immediately before the assay was conducted. […] The appropriate bacterial dilution was prepared and 50 μl of that was placed in a sterile Eppendorf micro-centrifuge tube with a 100 μl of the extract/metal salt solution. […] Serial dilutions were prepared in Ringer's solution, 10 μL aliquots of each dilution were spotted onto nutrient agar plates and incubated aerobically for 24 hours at 37° C. Each assay was conducted in triplicate.

Ps. aeruginosa = experiment: as above; assay type: cell-based, Pseudomonas aeruginosa; conditions: Lambda buffer control
Description: as §1

Staph. aureus = experiment: as above; assay type: cell-based, Staphylococcus aureus; conditions: Lambda buffer control
Description: as §1

Pseudomonas aeruginosa = experiment: In vitro bactericidal assay, control strain; assay type: cell-based; conditions: metal ion added to PRE
Description: The control strain was Pseudomonas aeruginosa for standard experimentation, ie determining optimal preparations.
Growth conditions: on nutrient agar provided by Oxoid Ltd for 24 hrs at 37° C.
The inventor established a functional in vitro bactericidal assay to screen a variety of formulations (cream, aqueous and ointment). This assay involved adding 0.5 g of ointment to 10 ml of water and vortexing prior to a standard suspension test using 50 microlitres of bacterial cell suspension to a turbidity of 0.5 McFarland solution (bacterial cell suspension equal to 1.5×10^8) plus 100 microlitres of the ointment solution. After incubation in the dark at room temperature for 30 mins, serial dilutions (from 10^−1 to 10^−5) were carried out on nutrient agar.
In terms of mechanisms of action, the preference for using metal ions in the reduced state led to the incorporation of studies using reductants to stabilize this oxidation state, and prolong and enhance activity. Thus, the reductant Vitamin C was added in three different doses after pre-incubating the PRE/metal ions mixtures for 30 minutes, and the results are shown in FIG. 2.
The longer term activities of the PRE:metal salt(s) mixtures were investigated after a period of 24 and 48 hours, and the results are shown in FIG. 4. […] The results shown are for one system only as an example.

[1] = test system: ESβL Pseudomonas aeruginosa clinical isolates; experiment: Suspension test, aqueous preparations, 30 minutes; assay type: cell-based; conditions: no Vitamin C, nine isolates, listed as Cu(II)
Description: P. aeruginosa isolates were removed from the freezer and first passaged on nutrient agar twice before use. Overnight cultures on nutrient agar were then suspended in Ringer's solution (Oxoid, U.K.) to a turbidity equivalent to 0.5 McFarland (1.5×10^8 CFU/ml).
The appropriate bacterial dilution was prepared and 50 μl placed in a sterile Eppendorf micro-centrifuge tube with a 100 μl of the extract/metal salt solution. After exposure of the bacteria for 30 minutes at room temperature, the activity of the bactericidal agent was neutralized by adding an equal volume of 2% (v/v) Tween-80 (Sigma Chemical Co., UK) in Lambda buffer (Stewart et al. 1998). Serial dilutions were prepared in Ringer's solution (10^−5), 10 μl of each dilution is spotted on nutrient agar plate and incubated for 24 hours at 37° C. Each assay was conducted in triplicate.
The assay was carried out as described above with the following addition: Vitamin C was added to the metal ion solution immediately prior to mixing with the PRE. Aliquots of Vitamin C were made to give final metal ion:Vitamin C ratios (and Vitamin C concentrations) of 1:1 (4.8 mM), 1:5 (24 nM), 1:20 (96 mM) (metal salt:Vitamin C). 700 μl of this solution was then added to PRE.

MRSA = experiment: Micro-dilution MIC, alone and in combination; assay type: cell-based, Staphylococcus aureus; conditions: each table line is a group of isolates; 24 h
Description: The plates were prepared as follows, 50 μl of four-times strength Iso-Sensitest broth was added to the first row of wells and 50 μl of double strength Iso-Sensitest broth was added to all remaining wells. To the first row of wells 50 μl of the PRE was added and mixed, 50 μl of broth from row A was transferred to row B and mixed, this process was continued to row E Finally, 50 μl of broth was removed from well F and discarded. Then the overnight cultures were suspended in Ringers solution to a turbidly of 0.5 McFarland (1.5×10^8 cfu/ml). 50 μl of suspension were added to well A (final concentration of PRE in well A=200 mg/ml) through to G All samples were carried out in Triplicate. All plates were incubated at 37° C. for 24 hours. After incubation 10 μl of broth from each well was spotted onto nutrient agar and incubated at 37° C. for 24 hours. After incubation the plates were examined to determine breakpoints by the presence or absence of growth.

PVL positive cMRSA = experiment: Suspension test, 2 hours, clinical isolates; assay type: cell-based, Staphylococcus aureus; conditions: 2 hours exposure, 10 clinical isolates
Description: Clinical isolates of methicillin resistant (n=10), methicillin sensitive (n=10) Staphylococcus aureus (MRSA and MSSA) and Panton-Valentine Leukocidin producing cMRSA (n=10) were used in the study. The MRSA and MSSA isolates were collected from the Royal Marsden Hospital (London, UK) and the cMRSA isolates were collected from the Devon and Exeter Hospital (UK). The isolates were cultured over night on nutrient agar (Oxoid), aerobically at 37° C. and then frozen in cyrovials (Pro-labs) at −80° C. until required. Prior to use all isolates were passaged twice on nutrient agar aerobically at 37° C. In all assays culture were prepared by using overnight cultures on nutrient agar that were then suspended in Ringer's solution (Pro-Lab, U.K.) to a turbidity equivalent to 0.5 McFarland (1.5×10^8 cfu ml^−1).
Briefly, overnight cultures on nutrient agar were then suspended in Ringer's solution (Oxoid, U.K.) to a turbidity equivalent to 0.5 McFarland (1.5×10^8 CFU/ml).
The appropriate bacterial dilution was prepared and 50 μL it placed in a sterile Eppendorf micro-centrifuge tube with a 100 μL of the extract/metal salt solution. Following treatment of the bacteria for 2 hours at room temperature, the activity of the bactericidal agent was neutralized by adding an equal volume of 2% (v/v) Tween-80 (Sigma Chemical Co., UK) in Lambda buffer. […]

E. coli = experiment: Suspension assay, 30 minutes exposure, viable count; assay type: cell-based; conditions: no Vitamin C
Description: All reagents were purchased from Sigma-Aldrich (Poole, Dorset) and distilled water was used throughout. Overnight cultures on nutrient agar were then suspended in Ringer's solution (Oxoid, U.K.) to a turbidity equivalent to 0.5 McFarland (1.5×10^8 CFU/ml). […] The final solution was protected from light (Stewart et al. 1998. J. Appl Microbiol 84:777-783). The appropriate bacterial dilution was prepared and 50 μl placed in a sterile Eppendorf micro-centrifuge tube with a 100 μl of the extract/metal salt solution. […] Serial dilutions were prepared in Ringer's solution (10^−5), 10 μl of each dilution is spotted on nutrient agar plate and incubated for 24 hours at 37° C. Each assay was conducted in triplicate. The assay was carried out as described above with the following addition: […]

Structure (SMILES) | bactericidal efficacy, reduction in CFU/mL (factor) (Prot. mirabilis) | bactericidal efficacy, reduction in CFU/mL (factor) (Ps. aeruginosa) | bactericidal efficacy, reduction in CFU/mL (factor) (Staph. aureus) | activity of the metal ion solution upon addition to PRE (Pseudomonas aeruginosa) | reduction in growth (mean values) [1] | MIC, agent alone (MRSA) | isolates in which the 10^3 log reduction in growth was observed (PVL positive cMRSA) [%] | reduction in growth (PVL positive cMRSA) | reduction of surviving population / growth, factor compared to the buffer (E. coli)
O=S(=O)([O-])[O-].[Cu+2] [CuSO4, copper (II) sulfate] | 10^2 | 10^2 | 10^4 | highest activities | ~10^1 log10 and ~10^2 log10 | 3125 µg/mL and 1563 µg/mL | 60 | 10^3 log10 | 10^4
O=S(=O)([O-])[O-].[Fe+2] [FeSO4, iron (II) sulfate] | 10^3 | 10^3 | poor efficacy | highest activities |  |  |  |  | 
O=S(=O)([O-])[O-].[Mn+2] [MnSO4] | minimal | minimal | poor efficacy | little or no activity |  |  |  |  | 
O=S(=O)([O-])[O-].[Zn+2] [ZnSO4] |  |  |  | little or no activity |  |  |  |  | 
